From US20220119354A1, “DIAMINO-SUBSTITUTED PYRIDINES AND PYRIMIDINES AS HERBICIDES” (FMC Corporation, priority 2019, published 2022)

Key:
Assay type in all cases: in vivo
[1] = system: ragweed (common ragweed, Ambrosia elatior); assay: Test A postemergence, ragweed; conditions: 0 to 100 scale
Text: (§1) Seeds of plant species selected from barnyardgrass (Echinochloa crus-galli), kochia (Kochia scoparia), ragweed (common ragweed, Ambrosia elatior), ryegrass, Italian (Lolium multiflorum), foxtail, giant (Setaria faberii), foxtail, green (Setaria viridis), and pigweed (Amaranthus retroflexus) were planted into a blend of loam soil and sand and treated preemergence with a directed soil spray using test chemicals formulated in a non-phytotoxic solvent mixture which included a surfactant.
(§2) At the same time, plants selected from these weed species and also wheat (Triticum aestivum), corn (Zea mays), blackgrass (Alopecurus myosuroides), and galium (catchweed bedstraw, Galium aparine) were planted in pots containing the same blend of loam soil and sand and treated with postemergence applications of test chemicals formulated in the same manner. Plants ranged in height from 2 to 10 cm and were in the one- to two-leaf stage for the postemergence treatment. Treated plants and untreated controls were maintained in a greenhouse for approximately 10 d, after which time all treated plants were compared to untreated controls and visually evaluated for injury. Plant response ratings, summarized in Table A, are based on a 0 to 100 scale where 0 is no effect and 100 is complete control. A dash (-) response means no test result.

[2] = system: kochia (Kochia scoparia); assay: Test A preemergence, kochia; conditions: 0 to 100 scale
Text: as §1, §2

[3] = system: ryegrass, Italian (Lolium multiflorum); assay: Test A postemergence, Italian ryegrass; conditions: 0 to 100 scale
Text: as §1, §2

[4] = system: barnyardgrass (Echinochloa crus-galli); assay: Test A preemergence, barnyardgrass; conditions: 0 to 100 scale
Text: as §1, §2

[5] = system: rice (Oryza sativa); assay: Test B flooded paddy test, rice; conditions: Flood, 250 g ai/ha, applied to paddy water, 2-leaf stage, visual evaluation after 13 to 15 d
Experimental: (§3) Plant species in the flooded paddy test selected from rice (Oryza sativa), sedge, umbrella (small-flower umbrella sedge, Cyperus difformis), ducksalad (Heteranthera limosa), and barnyardgrass (Echinochloa crus-galli) were grown to the 2-leaf stage for testing. At the time of treatment, test pots were flooded to 3 cm above the soil surface, treated by application of test compounds directly to the paddy water, and then maintained at that water depth for the duration of the test. Treated plants and controls were maintained in a greenhouse for 13 to 15 d, after which time all species were compared to controls and visually evaluated. Plant response ratings, summarized in Table B, are based on a scale of 0 to 100 where 0 is no effect and 100 is complete control. A dash (-) response means no test result.

[6] = system: galium (catchweed bedstraw, Galium aparine); assay: Test A postemergence, galium; conditions: 0 to 100 scale
Text: as §1, §2

[7] = system: barnyardgrass (Echinochloa crus-galli); assay: Test A postemergence, barnyardgrass; conditions: 0 to 100 scale
Text: as §1, §2

[8] = system: blackgrass (Alopecurus myosuroides); assay: Test A postemergence, blackgrass; conditions: 0 to 100 scale
Text: as §1, §2

[9] = system: barnyardgrass (Echinochloa crus-galli); assay: Test B flooded paddy test, barnyardgrass; conditions: Flood, 250 g ai/ha, applied to paddy water, 2-leaf stage, visual evaluation after 13 to 15 d
Experimental: as §3

[10] = system: foxtail, giant (Setaria faberii); assay: Test A preemergence, giant foxtail; conditions: 0 to 100 scale
Text: as §1, §2

[11] = system: ryegrass, Italian (Lolium multiflorum); assay: Test A preemergence, Italian ryegrass; conditions: 0 to 100 scale
Text: as §1, §2

[12] = system: sedge, umbrella (small-flower umbrella sedge, Cyperus difformis); assay: Test B flooded paddy test, umbrella sedge; conditions: Flood, 250 g ai/ha, applied to paddy water, 2-leaf stage, visual evaluation after 13 to 15 d
Experimental: as §3

[13] = system: pigweed (Amaranthus retroflexus); assay: Test A postemergence, pigweed; conditions: 0 to 100 scale
Text: as §1, §2

[14] = system: wheat (Triticum aestivum); assay: Test A postemergence, wheat; conditions: 0 to 100 scale
Text: as §1, §2

[15] = system: ducksalad (Heteranthera limosa); assay: Test B flooded paddy test, ducksalad; conditions: Flood, 250 g ai/ha, applied to paddy water, 2-leaf stage, visual evaluation after 13 to 15 d
Experimental: as §3

[16] = system: pigweed (Amaranthus retroflexus); assay: Test A preemergence, pigweed; conditions: 0 to 100 scale
Text: as §1, §2

[17] = system: kochia (Kochia scoparia); assay: Test A postemergence, kochia; conditions: 0 to 100 scale
Text: as §1, §2

[18] = system: foxtail, giant (Setaria faberii); assay: Test A postemergence, giant foxtail; conditions: 0 to 100 scale
Text: as §1, §2

[19] = system: corn (Zea mays); assay: Test A postemergence, corn; conditions: 0 to 100 scale
Text: as §1, §2

[20] = 125 g ai/ha, 0 is no effect, 100 is complete control

Structure (SMILES): CC(Nc1ncc(C(F)(F)F)c(N)n1)c1cc2ccccc2s1 (racemic) [Compound 16]
- Plant response rating, Ragweed ([1]; 125 g ai/ha): 0
- Plant response rating, Ragweed ([1]; 500 g ai/ha): 80
- Plant response rating, Kochia ([2]; 125 g ai/ha): 70
- Plant response rating, Kochia ([2]; 500 g ai/ha): 100
- Plant response rating, Ryegrass, Italian ([3]; 125 g ai/ha): 0
- Plant response rating, Ryegrass, Italian ([3]; 500 g ai/ha): 40
- Plant response rating, Barnyardgrass ([4]; 125 g ai/ha): 70
- Plant response rating, Barnyardgrass ([4]; 500 g ai/ha): 100
- Plant response rating, Rice (0 to 100 scale, 0 is no effect, 100 is complete control) [5]: 0
- Plant response rating, Galium ([6]; 125 g ai/ha): 60
- Plant response rating, Galium ([6]; 500 g ai/ha): 80
- Plant response rating, Barnyardgrass ([7]; 125 g ai/ha): 30
- Plant response rating, Barnyardgrass ([7]; 500 g ai/ha): 60
- Plant response rating, Blackgrass ([8]; 125 g ai/ha): 10
- Plant response rating, Blackgrass ([8]; 500 g ai/ha): 30
- Plant response rating, Barnyardgrass (0 to 100 scale, 0 is no effect, 100 is complete control) [9]: 50
- Plant response rating, Foxtail, Giant ([10]; 125 g ai/ha): 50
- Plant response rating, Foxtail, Giant ([10]; 500 g ai/ha): 100
- Plant response rating, Ryegrass, Italian ([11]; 125 g ai/ha): 0
- Plant response rating, Ryegrass, Italian ([11]; 500 g ai/ha): 10
- Plant response rating, Sedge, Umbrella (0 to 100 scale, 0 is no effect, 100 is complete control) [12]: 95
- Plant response rating, Pigweed ([13]; 125 g ai/ha): 90
- Plant response rating, Pigweed ([13]; 500 g ai/ha): 100
- Plant response rating, Wheat ([14]; 125 g ai/ha): 0
- Plant response rating, Wheat ([14]; 500 g ai/ha): 0
- Plant response rating, Ducksalad (0 to 100 scale, 0 is no effect, 100 is complete control) [15]: 15
- Plant response rating, Pigweed ([16]; 125 g ai/ha): 90
- Plant response rating, Pigweed ([16]; 500 g ai/ha): 100
- Plant response rating, Kochia ([17]; 125 g ai/ha): 70
- Plant response rating, Kochia ([17]; 500 g ai/ha): 80
- Plant response rating, Foxtail, Giant ([18]; 125 g ai/ha): 20
- Plant response rating, Foxtail, Giant ([18]; 500 g ai/ha): 90
- Plant response rating, Corn ([19]; 125 g ai/ha): 0
- Plant response rating, Corn ([19]; 500 g ai/ha): 20

Structure (SMILES): Cc1cc(OCC(C)Nc2ncc(C(F)(F)F)c(N)n2)ccc1F (stereo not drawn) [Compound 38]
- Plant response rating, Ragweed ([1]; 125 g ai/ha): 0
- Plant response rating, Ragweed ([1]; 500 g ai/ha): 0
- Kochia plant response rating [2, 20]: 0
- Plant response rating, Kochia ([2]; 500 g ai/ha): 60
- Plant response rating, Ryegrass, Italian ([3]; 125 g ai/ha): 0
- Plant response rating, Ryegrass, Italian ([3]; 500 g ai/ha): 0
- Barnyardgrass plant response rating [4, 20]: 30
- Plant response rating, Barnyardgrass ([4]; 500 g ai/ha): 90
- Plant response rating, Rice (0 to 100 scale, 0 is no effect, 100 is complete control) [5]: 0
- Plant response rating, Galium ([6]; 125 g ai/ha): 30
- Plant response rating, Galium ([6]; 500 g ai/ha): 70
- Plant response rating, Barnyardgrass ([7]; 125 g ai/ha): 0
- Plant response rating, Barnyardgrass ([7]; 500 g ai/ha): 0
- Plant response rating, Blackgrass ([8]; 125 g ai/ha): 0
- Plant response rating, Blackgrass ([8]; 500 g ai/ha): 0
- Plant response rating, Barnyardgrass (0 to 100 scale, 0 is no effect, 100 is complete control) [9]: 0
- Foxtail, Giant plant response rating [10, 20]: 20
- Plant response rating, Foxtail, Giant ([10]; 500 g ai/ha): 90
- Plant response rating, Sedge, Umbrella (0 to 100 scale, 0 is no effect, 100 is complete control) [12]: 0
- Plant response rating, Pigweed ([13]; 125 g ai/ha): 20
- Plant response rating, Pigweed ([13]; 500 g ai/ha): 80
- Plant response rating, Wheat ([14]; 125 g ai/ha): 0
- Plant response rating, Wheat ([14]; 500 g ai/ha): 0
- Plant response rating, Ducksalad (0 to 100 scale, 0 is no effect, 100 is complete control) [15]: 0
- Pigweed plant response rating [16, 20]: 50
- Plant response rating, Pigweed ([16]; 500 g ai/ha): 90
- Plant response rating, Kochia ([17]; 125 g ai/ha): 0
- Plant response rating, Kochia ([17]; 500 g ai/ha): 30
- Plant response rating, Foxtail, Giant ([18]; 125 g ai/ha): 0
- Plant response rating, Foxtail, Giant ([18]; 500 g ai/ha): 0
- Plant response rating, Corn ([19]; 125 g ai/ha): 0
- Plant response rating, Corn ([19]; 500 g ai/ha): 0
